Legend:
clinical [1] = conditions: human, in vivo, iv, Vdss
clinical [2] = conditions: human, in vivo, iv
clinical [3] = conditions: human, in vivo, iv, CL
clinical [4] = conditions: human, in vivo, iv, t1/2

| Structure (SMILES) | Vd (clinical [1]) [L/kg] | MRT (clinical [2]) [h] | clearance (clinical [3]) [mL/min/kg] | half-life (clinical [4]) [h] |
| --- | --- | --- | --- | --- |
| Cn1cc(NC(=O)Nc2cc(C(=O)Nc3cc(C(=O)Nc4ccc5cc(S(=O)(=O)O)cc(S(=O)(=O)O)c5c4)n(C)c3)n(C)c2)cc1C(=O)Nc1cc(C(=O)Nc2ccc3cc(S(=O)(=O)O)cc(S(=O)(=O)O)c3c2)n(C)c1 | 0.27 | 960 | 0.0047 | 730 |
| COc1cc(CC(=O)NCC(=O)N(CCC(=O)O)Cc2ccc(OC)c(OC)c2)ccc1NC(=O)Nc1ccccc1C | 0.25 | 0.38 | 11 | 1.6 |
| C[C@H](N[C@@H](CCc1ccccc1)C(=O)O)C(=O)N1Cc2ccccc2C[C@H]1C(=O)O | 0.13 | 2.3 | 0.93 | 2.3 |
| Cc1nnc(SCC2=C(C(=O)O)N3C(=O)[C@@H](NC(=O)[C@H](O)c4ccccc4)[C@H]3SC2)s1 | 0.13 | 0.83 | 2.6 | 1 |
| N=C(N)c1ccc(CNC(=O)[C@@H]2CCN2C(=O)[C@H](NCC(=O)O)C2CCCCC2)cc1 | 0.23 | 2 | 1.9 | 1.6 |
| CC(=N)N1CC[C@H](SC2=C(C(=O)O)N3C(=O)[C@H]([C@@H](C)O)[C@H]3C2)C1 | 0.19 | 1.2 | 2.6 | 0.96 |
| CN(C)/N=N/c1ccc(C(=O)O)cc1 | 0.25 | 3 | 1.3 | 2.5 |
| C=CCc1ccccc1OCC(O)CNC(C)C (stereo not given) [ALPRENOLOL] |  | 3.6 | 15 | 2.5 |
| NC12CC3CC(CC(C3)C1)C2 [AMANTADINE] |  | 23 | 4.8 | 16 |
| CNCC[C@@H](Oc1ccccc1C)c1ccccc1 [ATOMOXETINE] |  | 1.5 | 9.3 | 5.2 |
| CC[C@H]1OC(=O)[C@H](C)[C@@H](O[C@H]2C[C@@](C)(OC)[C@@H](O)[C@H](C)O2)[C@H](C)[C@@H](O[C@@H]2O[C@H](C)C[C@H](N(C)C)[C@H]2O)[C@](C)(O)C[C@@H](C)CN(C)[C@H](C)[C@@H](O)[C@]1(C)O [AZITHROMYCIN] |  | 57 | 10 | 69 |
| CC(C)NCC(O)COc1ccc(COCCOC(C)C)cc1 (stereo not given) [BISOPROLOL] | 2.4 |  | 3.7 | 10 |
| COC(=O)O[C@@]12CO[C@@H]1C[C@H](O)[C@@]1(C)C(=O)[C@H](OC(C)=O)C3=C(C)[C@@H](OC(=O)[C@H](O)[C@@H](NC(=O)c4ccccc4)c4ccccc4)C[C@@](O)([C@@H](OC(=O)c4ccccc4)[C@H]21)C3(C)C [BMS-188797] | 6.9 | 13 | 8.6 |  |
| C=CC1=C(C(=O)O)N2C(=O)[C@@H](NC(=O)/C(=N\OCC(=O)O)c3csc(N)n3)[C@H]2SC1 [CEFIXIME] | 0.24 |  | 1 | 3.2 |
| O=C(N[C@H](CO)[C@H](O)c1ccc([N+](=O)[O-])cc1)C(Cl)Cl [CHLORAMPHENICOL] |  | 6.5 | 2.4 | 4.6 |
| CN(C)CCC(c1ccc(Cl)cc1)c1ccccn1 (stereo not given) [CHLORPHENIRAMINE] | 3.3 | 22 | 2.5 |  |
| CN(C)CCCC1(c2ccc(F)cc2)OCc2cc(C#N)ccc21 (stereo not given) [CITALOPRAM] |  | 47 | 4.3 | 33 |
| CN(C)CCCN1c2ccccc2CCc2ccc(Cl)cc21 [CLOMIPRAMINE] | 13 | 26 | 8.2 |  |
| O=c1[nH]cnc2c1ncn2[C@H]1CC[C@@H](CO)O1 [DIDANOSINE] |  | 1.2 | 11 | 1.4 |
| C[C@H](CCc1ccccc1)NC[C@H](O)c1ccc(O)c(C(N)=O)c1 [DILEVALOL] |  | 2.8 | 29 | 3.3 |
| O=c1[nH]c2ccccc2n1CCCN1CCC(n2c(=O)[nH]c3cc(Cl)ccc32)CC1 [DOMPERIDONE] | 3.4 | 6 | 9.5 |  |
| CCN(CC)C(=O)/C(C#N)=C/c1cc(O)c(O)c([N+](=O)[O-])c1 [ENTACAPONE] | 0.27 | 0.38 | 12 |  |
| C[C@]12CC[C@@H]3c4ccc(O)cc4CC[C@H]3[C@@H]1CC[C@@H]2O [ESTRADIOL] |  | 0.7 | 30 | 1.7 |

| Structure (SMILES) | Vd (clinical [1]) [L/kg] | MRT (clinical [2]) [h] | clearance (clinical [3]) [mL/min/kg] | half-life (clinical [4]) [h] |
| --- | --- | --- | --- | --- |
| CCOC(=O)c1ncn2c1CN(C)C(=O)c1cc(F)ccc1-2 [FLUMAZENIL] |  | 1 | 16 | 0.78 |
| O=C(O)P(=O)(O)O [FOSCARNET] | 0.5 |  | 2.1 | 4.7 |
| NCC1(CC(=O)O)CCCCC1 [GABAPENTIN] | 0.71 | 7 | 1.7 |  |
| CCC1=C(C)CN(C(=O)NCCc2ccc(S(=O)(=O)NC(=O)N[C@H]3CC[C@H](C)CC3)cc2)C1=O [GLIMEPIRIDE] | 0.19 |  | 0.5 | 9.95 |
| C[C@@H](O)[C@H]1C(=O)N2C(C(=O)O)=C(SCCN=CN)C[C@H]12 [IMIPENEM ANHYDROUS] |  | 1.3 | 3 | 0.95 |
| CCC(C)n1ncn(-c2ccc(N3CCN(c4ccc(OCC5COC(Cn6cncn6)(c6ccc(Cl)cc6Cl)O5)cc4)CC3)cc2)c1=O (stereo not given) [ITRACONAZOLE] | 7.4 |  | 5.1 | 25 |
| CC(CCc1ccccc1)NCC(O)c1ccc(O)c(C(N)=O)c1 (stereo not given) [LABETALOL] |  |  | 23 | 4.4 |
| O=C1Nc2ccc(Cl)cc2C(c2ccccc2Cl)=NC1O (stereo not given) [LORAZEPAM] |  | 22 | 1 | 17 |
| CC1CCN(CCCC(=O)c2ccc(F)cc2)CC1 [MELPERONE] |  | 5 | 46 |  |
| CN(Cc1cnc2nc(N)nc(N)c2n1)c1ccc(C(=O)N[C@@H](CCC(=O)O)C(=O)O)cc1 [METHOTREXATE] | 0.43 | 3.4 | 2.1 |  |
| Cc1ncc2n1-c1ccc(Cl)cc1C(c1ccccc1F)=NC2 [MIDAZOLAM] |  | 3.5 | 5.3 | 3.1 |
| CN1CCN2c3ncccc3Cc3ccccc3C2C1 (stereo not given) [MIRTAZAPINE] | 4.2 | 8.8 | 8 |  |
| CCc1nn(CCCN2CCN(c3cccc(Cl)c3)CC2)c(=O)n1CCOc1ccccc1 [NEFAZODONE] |  | 1.1 | 7.5 | 1.2 |
| CN1CCC[C@H]1c1cccnc1 [NICOTINE] |  | 2.4 | 18 | 2 |
| CC[C@H](C)C(=O)O[C@H]1C[C@H](O)C=C2C=C[C@H](C)[C@H](CC[C@@H](O)C[C@@H](O)CC(=O)O)[C@H]21 [PRAVASTATIN] | 0.46 |  | 14 | 0.78 |
| CO[C@H]1/C=C/O[C@@]2(C)Oc3c(C)c(O)c4c(O)c(c(/C=N/N5CCN(C)CC5)c(O)c4c3C2=O)NC(=O)/C(C)=C\C=C\[C@H](C)[C@H](O)[C@@H](C)[C@@H](O)[C@@H](C)[C@H](OC(C)=O)[C@@H]1C [RIFAMPIN] | 0.97 | 4.6 | 3.5 |  |
| C/C=C1\NC(=O)[C@H]2CSSCC/C=C/[C@H](CC(=O)N[C@H](C(C)C)C(=O)N2)OC(=O)[C@H](C(C)C)NC1=O [ROMIDEPSIN] |  | 2.6 | 7.4 | 11 |
| CN(CCOc1ccc(CC2SC(=O)NC2=O)cc1)c1ccccn1 (stereo not given) [ROSIGLITAZONE] |  |  | 0.65 | 3.9 |
| CN1C(C(=O)Nc2ccccn2)=C(O)c2sccc2S1(=O)=O [TENOXICAM] |  | 92 | 0.03 | 67 |
| COc1cc2nc(N3CCN(C(=O)C4CCCO4)CC3)nc(N)c2cc1OC (stereo not given) [TERAZOSIN] |  |  | 1.1 | 9 |
| CN(C)[C@@H]1C(O)=C(C(N)=O)C(=O)[C@@]2(O)C(O)=C3C(=O)c4c(O)cccc4[C@@](C)(O)[C@H]3C[C@@H]12 [TETRACYCLINE] |  | 12 | 1.5 |  |
| CCCC(CCC)C(=O)O [VALPROIC ACID] | 0.14 |  | 0.16 | 12 |
| COc1ccc(C(CN(C)C)C2(O)CCCCC2)cc1 (stereo not given) [VENLAFAXINE] |  | 5.2 | 14 | 5 |

Source: ChEMBL document CHEMBL1614632, “Trend analysis of a database of intravenous pharmacokinetic parameters in humans for 670 drug compounds” (Drug Metab Dispos, 2008)
